Results published in ChEMBL document CHEMBL4043155, “Development of helix-stabilized antimicrobial peptides composed of lysine and hydrophobic α,α-disubstituted α-amino acid residues” (2017).
Converted amounts (≈) assume the structure as drawn. Where a SMILES comes first, the peptide text is derived from it. [ ]: non-standard residue; d: D form. Ac6c = NC1(C(=O)O)CCCCC1; Ac5c = NC1(C(=O)O)CCCC1

Legend:
Assay type in all cases: functional
Staphylococcus aureus = assay: Antimicrobial activity against Staphylococcus aureus NBRC 13276 after 16 hrs by microbroth dilution method; conditions: NBRC 13276, 16 h
Pseudomonas aeruginosa = assay: Antimicrobial activity against Pseudomonas aeruginosa NBRC 13275 after 16 hrs by microbroth dilution method; conditions: NBRC 13275, 16 h
Escherichia coli = assay: Antimicrobial activity against Escherichia coli NBRC 3972 after 16 hrs by microbroth dilution method; conditions: NBRC 3972, 16 h

Row | Molecule | MIC (Staphylococcus aureus) [µM] | MIC (Pseudomonas aeruginosa) [µM] | MIC (Escherichia coli) [µM]
1 | CC(=O)N[C@H](CCCCN)C(=O)N[C@H](CCCCN)C(=O)NC(C)(C)C(=O)N[C@H](CCCCN)C(=O)N[C@H](CCCCN)C(=O)NC(C)(C)C(=O)N[C@H](CCCCN)C(=O)N[C@H](CCCCN)C(=O)NC(C)(C)C(N)=O | > 800 | > 800 | > 800
2 | CC(=O)N[C@@H](CCCCN)C(=O)N[C@H](CCCCN)C(=O)NC(C)(C)C(=O)N[C@@H](CCCCN)C(=O)N[C@H](CCCCN)C(=O)NC(C)(C)C(=O)N[C@@H](CCCCN)C(=O)N[C@H](CCCCN)C(=O)NC(C)(C)C(N)=O | > 800 | > 800 | > 800
3 | CC(=O)N[C@@H](CCCCN)C(=O)N[C@@H](CCCCN)C(=O)NC(C)(C)C(=O)N[C@@H](CCCCN)C(=O)N[C@@H](CCCCN)C(=O)NC(C)(C)C(=O)N[C@@H](CCCCN)C(=O)N[C@@H](CCCCN)C(=O)NC(C)(C)C(N)=O | > 800 | > 800 | 400 (≈ 433 µg/mL)
4 | CC(=O)N[C@@H](CCCCN)C(=O)N[C@@H](CCCCN)C(=O)NC1(C(=O)N[C@@H](CCCCN)C(=O)N[C@@H](CCCCN)C(=O)NC2(C(=O)N[C@@H](CCCCN)C(=O)N[C@@H](CCCCN)C(=O)NC3(C(N)=O)CCCC3)CCCC2)CCCC1 (Ac-KK[Ac5c]KK[Ac5c]KK[Ac5c]-NH2) | > 800 | 400 (≈ 465 µg/mL) | 50 (≈ 58.1 µg/mL)
5 | CC(=O)N[C@@H](CCCCN)C(=O)N[C@@H](CCCCN)C(=O)NC1(C(=O)N[C@@H](CCCCN)C(=O)N[C@@H](CCCCN)C(=O)NC2(C(=O)N[C@@H](CCCCN)C(=O)N[C@@H](CCCCN)C(=O)NC3(C(N)=O)CCCCC3)CCCCC2)CCCCC1 (Ac-KK[Ac6c]KK[Ac6c]KK[Ac6c]-NH2) | > 800 | 50 (≈ 60.2 µg/mL) | 25 (≈ 30.1 µg/mL)
6 | CC(=O)NC(CCCCN)C(=O)NC(CCCCN)C(=O)NC(C)(C)C(=O)NC(CCCCN)C(=O)NC(CCCCN)C(=O)NC(C)(C)C(=O)NC(CCCCN)C(=O)NC(CCCCN)C(=O)NC(C)(C)C(N)=O (racemic) | > 800 | > 800 | > 800
7 | Ac-GIGKFLHSAKKFGKAFVGEIMNS-NH2 | 200 | 12.5 | 50
8 | Ac-KKAKKAKKA-NH2 | > 800 | > 800 | > 800
9 | Ac-KKGKKGKKG-NH2 | > 800 | > 800 | > 800
